The values that follow are results of earlier work, collected in US20030176390A1, “Methods of treating insulin resistance syndrome and diabetes” (priority 2001, published 2003).

One series relates to A1 and A2 receptors. The following applies: selectivity; cited from earlier work.
In the next series the test system is A2 receptor. The following applies: relative to NECA; cited from earlier work.

`OC[C@H]1O[C@@H](n2cnc3c(NC4CCCC4)ncnc32)[C@H](O)[C@@H]1O` [CPA, Cyclopentyladenosine]: the A2/A1 ratio in the series on A1 and A2 receptors was 780. For `Nc1nc(Nc2ccccc2)nc2c1ncn2[C@@H]1O[C@H](CO)[C@@H](O)[C@H]1O` [CV-1808], the “fold less potent than NECA in its affinity for the A2 receptor” value in the series with A2 receptor is reported as 10 fold. For the same compound, in the series with A1 and A2 receptors, the A2/A1 ratio is 0.19.
